Source: US20230085307A1, “PYRIDAZINONE COMPOUND AND HERBICIDE” (NISSAN CHEMICAL CORPORATION, priority 2019, published 2023)

How the values were obtained:
Details in all cases: amount of applied herbicide 320 g/ha
barnyard grass [1] = test: Test Example 3: herbicidal effect by foliage application, Wagner pot (Table 18, symbol H); type: in vivo, barnyard grass (Echinochloa crus-galli)
Procedure, shortened: (§1)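 Plants were sown in alluvial soil held under 0.1–0.5 cm standing water and grown 14 days in a greenhouse at 25–30 °C. An emulsifiable formulation, water-diluted to the set dose, was then sprayed onto the foliage, and effects were scored three weeks later using previously defined criteria.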

Chinese sprangletop = test: Test Example 3: herbicidal effect by foliage application, Wagner pot (Table 18, symbol D); type: in vivo, chinese sprangletop (Leptochloa chinensis)
Procedure, shortened: as §1

rice flat sedge = test: Test Example 3: herbicidal effect by foliage application, Wagner pot (Table 18, symbol E); type: in vivo, rice flat sedge (Cyperus iria)
Procedure, shortened: as §1

southern crabgrass = test: Test Example 4: herbicidal effect by soil treatment (Table 19, symbol F); type: in vivo, southern crabgrass (Digitaria ciliaris)
Procedure, shortened: (§2)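 Pre-emergence style soil spray: seeds under ~1.5 cm sterilized diluvial soil received a uniform coat of emulsion diluted to the predetermined herbicide amount. Greenhouse 25–30° C; readout at week three on previously defined criteria.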

green foxtail = test: Test Example 4: herbicidal effect by soil treatment (Table 19, symbol G); type: in vivo, green foxtail (Setaria viridis)
Procedure, shortened: as §2

barnyard grass [2] = test: Test Example 4: herbicidal effect by soil treatment (Table 19, symbol H); type: in vivo, barnyard grass (Echinochloa crus-galli)
Procedure, shortened: as §2

wild oat = test: Test Example 4: herbicidal effect by soil treatment (Table 19, symbol I); type: in vivo, wild oat (Avena fatua)
Procedure, shortened: as §2

blackgrass = test: Test Example 4: herbicidal effect by soil treatment (Table 19, symbol J); type: in vivo, blackgrass (Alopecurus myosuroides)
Procedure, shortened: as §2

Italian ryegrass = test: Test Example 4: herbicidal effect by soil treatment (Table 19, symbol K); type: in vivo, Italian ryegrass (Lolium multiflorum)
Procedure, shortened: as §2

windgrass = test: Test Example 4: herbicidal effect by soil treatment (Table 19, symbol L); type: in vivo, windgrass (Apera spica-venti)
Procedure, shortened: as §2

velvetleaf = test: Test Example 4: herbicidal effect by soil treatment (Table 19, symbol M); type: in vivo, velvetleaf (Abutilon theophrasti)
Procedure, shortened: as §2

redroot pigweed = test: Test Example 4: herbicidal effect by soil treatment (Table 19, symbol N); type: in vivo, redroot pigweed (Amaranthus retroflexus)
Procedure, shortened: as §2

lambsquarters = test: Test Example 4: herbicidal effect by soil treatment (Table 19, symbol O); type: in vivo, lambsquarters (Chenopodium album)
Procedure, shortened: as §2

chickweed = test: Test Example 4: herbicidal effect by soil treatment (Table 19, symbol P); type: in vivo, common chickweed (Stellaria media)
Procedure, shortened: as §2

persian speedwell = test: Test Example 4: herbicidal effect by soil treatment (Table 19, symbol R); type: in vivo, Persian speedwell (Veronica persica)
Procedure, shortened: as §2

Compound	herbicidal effect on H: barnyard grass (barnyard grass [1])	herbicidal effect on D: Chinese sprangletop (Chinese sprangletop)	herbicidal effect on E: rice flat sedge (rice flat sedge)	herbicidal effect, F: southern crabgrass (southern crabgrass)	herbicidal effect, G: green foxtail (green foxtail)	herbicidal effect, H: barnyard grass (barnyard grass [2])	herbicidal effect, I: wild oat (wild oat)	herbicidal effect, J: blackgrass (blackgrass)	herbicidal effect, K: Italian ryegrass (Italian ryegrass)	herbicidal effect, L: windgrass (windgrass)	herbicidal effect, M: velvetleaf (velvetleaf)	herbicidal effect, N: redroot pigweed (redroot pigweed)	herbicidal effect, O: lambsquarters (lambsquarters)	herbicidal effect, P: chickweed (chickweed)	herbicidal effect, R: persian speedwell (persian speedwell)
Cc1nn(C)c(=O)c(-c2c(-c3ccc(C(F)(F)F)cc3F)sc3ccc(F)cc23)c1O [2-354]	5 (Herbicidal rate of 90% or more (almost completely withered))	5 (Herbicidal rate of 90% or more (almost completely withered))	5 (Herbicidal rate of 90% or more (almost completely withered))	0 (Herbicidal rate of 5% or less (almost no effect))	1 (Herbicidal rate of 5% or more and less than 20%)	0 (Herbicidal rate of 5% or less (almost no effect))	0 (Herbicidal rate of 5% or less (almost no effect))	0 (Herbicidal rate of 5% or less (almost no effect))	0 (Herbicidal rate of 5% or less (almost no effect))	0 (Herbicidal rate of 5% or less (almost no effect))	0 (Herbicidal rate of 5% or less (almost no effect))	3 (Herbicidal rate of 40% or more and less than 70%)	3 (Herbicidal rate of 40% or more and less than 70%)	1 (Herbicidal rate of 5% or more and less than 20%)	4 (Herbicidal rate of 70% or more and less than 90%)
COc1cccc(-c2sc3ccc(F)cc3c2-c2c(O)c(C)nn(C)c2=O)c1F [2-362]	3 (Herbicidal rate of 40% or more and less than 70%)	0 (Herbicidal rate of 5% or less (almost no effect))	3 (Herbicidal rate of 40% or more and less than 70%)	0 (Herbicidal rate of 5% or less (almost no effect))	0 (Herbicidal rate of 5% or less (almost no effect))	0 (Herbicidal rate of 5% or less (almost no effect))	0 (Herbicidal rate of 5% or less (almost no effect))	0 (Herbicidal rate of 5% or less (almost no effect))	2 (Herbicidal rate of 20% or more and less than 40%)	0 (Herbicidal rate of 5% or less (almost no effect))	0 (Herbicidal rate of 5% or less (almost no effect))	1 (Herbicidal rate of 5% or more and less than 20%)	3 (Herbicidal rate of 40% or more and less than 70%)	0 (Herbicidal rate of 5% or less (almost no effect))	0 (Herbicidal rate of 5% or less (almost no effect))
COc1ccc(-c2sc3ccc(F)cc3c2-c2c(O)c(C)nn(C)c2=O)c(F)c1 [2-364]	4 (Herbicidal rate of 70% or more and less than 90%)	4 (Herbicidal rate of 70% or more and less than 90%)	5 (Herbicidal rate of 90% or more (almost completely withered))	0 (Herbicidal rate of 5% or less (almost no effect))	0 (Herbicidal rate of 5% or less (almost no effect))	0 (Herbicidal rate of 5% or less (almost no effect))	0 (Herbicidal rate of 5% or less (almost no effect))	0 (Herbicidal rate of 5% or less (almost no effect))	0 (Herbicidal rate of 5% or less (almost no effect))	0 (Herbicidal rate of 5% or less (almost no effect))	0 (Herbicidal rate of 5% or less (almost no effect))	1 (Herbicidal rate of 5% or more and less than 20%)	4 (Herbicidal rate of 70% or more and less than 90%)	0 (Herbicidal rate of 5% or less (almost no effect))	0 (Herbicidal rate of 5% or less (almost no effect))
